{"source": "patent US8361971B2", "about": "“Tablet formulation of ezatiostat” (Telik, Inc., priority 2010, dated 2013)", "experiment": "Assay and impurities by HPLC of tablets on storage", "assay_type": "physicochemical", "conditions": "Total impurities of Tables 5-7", "text": "As used herein, “impurity” refers to one or more of: TLK 236, another polymorphic form of ezatiostat hydrochloride including without limitation form A, B, C, E, or F, and any other compound other than ezatiostat hydrochloride ansolvate, which may be identified by HPLC. TLK 236 is a monoester derived from the partial hydrolysis of ezatiostat where the phenyl glycine moiety remains esterified.\nAs described above, form E converts to form B simply during tableting.\nTablets of ansolvate form D, were packaged with and without desiccant (Sorb-It Cannister, 1 gram). Fifty tablets were packaged in a round, white 1500 mL bottle with a screw cap over an induction seal. Impurities were assayed by HPLC. When stored at 25° C./60% RH with desiccant for 3 months, no increase in total impurities was observed. When stored at 40° C./75% RH with desiccant for 3 months, total impurities increased only by 0.3%. When stored at 40° C./75% RH without desiccant for 3 months, total impurities still increased by 1.1%. As tabulated below, the presence of desiccant appears to further increase the stability of the ansolvate form D. Even though the dissolution rate of tablets containing polymorph D from one batch was below specification (<70%) at an initial test as well as after 3 months at 25° C./60% RH with desiccant, the subsequent batches met the required specification.", "data": [{"compound": "CCOC(=O)[C@@H](N)CCC(=O)N[C@@H](CSCc1ccccc1)C(=O)N[C@@H](C(=O)OCC)c1ccccc1.Cl", "note": "[Polymorphic form B, ezatiostat hydrochloride]", "values": [{"measurement": "rate of decomposition relative to ansolvate form D", "value": "more than double the rate of decomposition of the ansolvate form D"}]}]}
